From patent publication EP4273147A1, “SUBSTITUTED SPIROLACTAMS, SALTS THEREOF AND THEIR USE AS HERBICIDALLY ACTIVE SUBSTANCES” (Bayer Aktiengesellschaft, priority 2022, dated 2023)

Experiments:
[1] = test system: LOLRI; experiment: Herbicidal pre-emergence action (Table A3); format: in vivo, Lolium rigidum; conditions: visual grading after ca. 3 weeks
Method in brief: (§1)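 Two-species sowings per pot, mono- plus dicotyledonous weeds; soil type sandy loam, seed covered after sowing.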

[2] = test system: MATIN; experiment: Herbicidal pre-emergence action (Table A4); format: in vivo, Matricaria inodora; conditions: application rate 1280 g/ha; visual grading after ca. 3 weeks
Method in brief: as §1

[3] = test system: SETVI; experiment: Herbicidal pre-emergence action (Table A5); format: in vivo, Setaria viridis; conditions: application rate 320 g/ha; visual grading after ca. 3 weeks
Method in brief: as §1

[4] = test system: STEME; experiment: Herbicidal pre-emergence action (Table A6); format: in vivo, Stellaria media; conditions: visual grading after ca. 3 weeks
Method in brief: as §1

[5] = test system: POAAN; experiment: Herbicidal pre-emergence action (Table A7); format: in vivo, Poa annua; conditions: application rate 320 g/ha; visual grading after ca. 3 weeks
Method in brief: as §1

[6] = test system: POAAN; experiment: Herbicidal post-emergence action (Table B7); format: in vivo, Poa annua; conditions: application rate 1280 g/ha
Method in brief: (§2)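 Percent herbicidal activity scored visually versus untreated controls, with 100% meaning dead plants. Scoring took place ~3 weeks after post-emergence treatment of one-leaf-stage weeds grown in sandy loam pots in a greenhouse.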

[7] = test system: ALOMY; experiment: Herbicidal pre-emergence action, section C (Table C2); format: in vivo, Alopecurus myosuroides; conditions: application rate 320 g/ha; visual grading after ca. 3 weeks
[8] = test system: ECHCG; experiment: Herbicidal pre-emergence action, section C (Table C6); format: in vivo, Echinochloa crus-galli; conditions: visual grading after ca. 3 weeks
Source text: (§5) Seeds of mono- and dicotyledonous weed plants and crop plants were sown, in plastic or organic planting pots, in sandy loam and covered with soil. The compounds according to the invention, formulated in the form of wettable powders (WP) or as emulsifiable concentrates (EC), were applied to the surface of the covering soil as aqueous suspension or emulsion, with the addition of 0.5% of an additive, at an application rate of 600 1 of water/ha (converted). Following treatment, the pots were placed in a greenhouse and kept under optimum growth conditions for the test plants.

[9] = test system: SETVI; experiment: Herbicidal pre-emergence action, section C (Table C10); format: in vivo, Setaria viridis; conditions: application rate 320 g/ha; visual grading after ca. 3 weeks
[10] = test system: VERPE; experiment: Herbicidal pre-emergence action, section C (Table C11); format: in vivo, Veronica persica; conditions: visual grading after ca. 3 weeks
[11] = test system: VIOTR; experiment: Herbicidal pre-emergence action, section C (Table C12); format: in vivo, Viola tricolor; conditions: visual grading after ca. 3 weeks
[12] = test system: ZEAMX; experiment: Pre-emergence effects on crop plants (Table D1); format: in vivo, Zea mays; conditions: crop plant, visual grading after ca. 3 weeks
[13] = test system: TRZAS; experiment: Pre-emergence effects on crop plants (Table D2); format: in vivo, Triticum aestivum; conditions: crop plant, visual grading after ca. 3 weeks
[14] = test system: GLXMA; experiment: Pre-emergence effects on crop plants (Table D4); format: in vivo, Glycine max; conditions: crop plant; application rate 80 g/ha; visual grading after ca. 3 weeks
[15] = test system: BRSNW; experiment: Pre-emergence effects on crop plants (Table D5); format: in vivo, Brassica napus; conditions: crop plant; application rate 80 g/ha; visual grading after ca. 3 weeks
[16] = test system: ECHCG; experiment: Herbicidal post-emergence action, section E (Table E5); format: in vivo, Echinochloa crus-galli; conditions: application rate 320 g/ha; assessed visually after ca. 3 weeks
Source text: (§3) 2 to 3 weeks after sowing, the test plants were sprayed in the single-leaf stage.

[17] = test system: VERPE; experiment: Herbicidal post-emergence action, section E (Table E9); format: in vivo, Veronica persica; conditions: application rate 320 g/ha; assessed visually after ca. 3 weeks
Source text: as §3

[18] = test system: ZEAMX; experiment: Post-emergence effects on crop plants (Table F1); format: in vivo, Zea mays; conditions: crop plant ZEAMX
Source text: as §3

[19] = test system: TRZAS; experiment: Post-emergence effects on crop plants (Table F2); format: in vivo, Triticum aestivum; conditions: application rate 320 g/ha, crop plant TRZAS
Source text: as §3

[20] = test system: ORYZA; experiment: Post-emergence effects on crop plants (Table F3); format: in vivo, Oryza sativa; conditions: application rate 320 g/ha, crop plant ORYZA
Source text: as §3

[21] = test system: BRSNW; experiment: Post-emergence effects on crop plants (Table F5); format: in vivo, Brassica napus; conditions: application rate 80 g/ha, crop plant BRSNW
Source text: as §3

[22] = test system: ORYZA; experiment: Pre-emergence effects on crop plants (Table D3); conditions: crop plant; application rate 80 g/ha; visual grading after ca. 3 weeks
[23] = test system: ABUTH; experiment: Herbicidal pre-emergence action (Table A1); format: in vivo, Abutilon theophrasti; conditions: application rate 1280 g/ha; visual grading after ca. 3 weeks vs untreated controls (100% = plants have died off, 0% = as control plants)
Source text: (§4) Seeds of mono- and dicotyledonous weed plants were sown in plastic pots (double sowings with one species of mono- and one species of dicotyledonous weed plants per pot), in sandy loam, and covered with soil.

[24] = test system: ECHCG; experiment: Herbicidal pre-emergence action (Table A2); format: in vivo, Echinochloa crus-galli; conditions: visual grading after ca. 3 weeks
Method in brief: as §1

[25] = test system: AMARE; experiment: Herbicidal pre-emergence action (Table A8); format: in vivo, Amaranthus retroflexus; conditions: application rate 1280 g/ha; visual grading after ca. 3 weeks vs untreated controls (100% = plants have died off, 0% = as control plants)
Source text: as §4

[26] = test system: ALOMY; experiment: Herbicidal pre-emergence action (Table A9); format: in vivo, Alopecurus myosuroides; conditions: application rate 1280 g/ha; visual grading after ca. 3 weeks
Method in brief: as §1

[27] = test system: KCHSC; experiment: Herbicidal pre-emergence action (Table A10); format: in vivo, Kochia scoparia; conditions: visual grading after ca. 3 weeks
Method in brief: as §1

[28] = test system: VERPE; experiment: Herbicidal pre-emergence action (Table A11); format: in vivo, Veronica persica; conditions: application rate 1280 g/ha; visual grading after ca. 3 weeks
Method in brief: as §1

[29] = test system: DIGSA; experiment: Herbicidal pre-emergence action (Table A12); format: in vivo, Digitaria sanguinalis; conditions: visual grading after ca. 3 weeks
Method in brief: as §1

[30] = test system: ABUTH; experiment: Herbicidal post-emergence action (Table B1); format: in vivo, Abutilon theophrasti; conditions: application rate 1280 g/ha; treated at one-leaf stage; rated visually after about 3 weeks vs untreated controls (100% = plants have died, 0% = like control plants)
Method: Seeds of mono- and dicotyledonous weed plants were placed in plastic pots in sandy loam soil (doubly sown with in each case one species of mono- or dicotyledonous weed plants per pot), covered with soil and cultivated in a greenhouse under controlled growth conditions. 2 to 3 weeks after sowing, the test plants were treated at the one-leaf stage. […] After the test plants had been kept in the greenhouse under optimum growth conditions for about 3 weeks, the activity of the preparations was rated visually in comparison to untreated controls. For example, 100% activity = the plants have died, 0% activity = like control plants.

[31] = test system: ECHCG; experiment: Herbicidal post-emergence action (Table B3); format: in vivo, Echinochloa crus-galli; conditions: application rate 1280 g/ha; rated visually after about 3 weeks
Method in brief: as §2

[32] = test system: SETVI; experiment: Herbicidal post-emergence action (Table B8); format: in vivo, Setaria viridis; conditions: application rate 1280 g/ha
Method in brief: as §2

[33] = test system: DIGSA; experiment: Herbicidal pre-emergence action, section C (Table C5); format: in vivo, Digitaria sanguinalis; conditions: application rate 320 g/ha; visual grading after ca. 3 weeks
[34] = test system: LOLRI; experiment: Herbicidal pre-emergence action, section C (Table C7); format: in vivo, Lolium rigidum; conditions: application rate 320 g/ha; visual grading after ca. 3 weeks
[35] = test system: MATIN; experiment: Herbicidal pre-emergence action, section C (Table C8); format: in vivo, Matricaria inodora; conditions: application rate 320 g/ha; visual grading after ca. 3 weeks
Source text: as §5

[36] = test system: POLCO; experiment: Herbicidal pre-emergence action, section C (Table C9); format: in vivo, Polygonum convolvulus; conditions: application rate 320 g/ha; visual grading after ca. 3 weeks
[37] = test system: ABUTH; experiment: Herbicidal pre-emergence action, section C (Table C1); format: in vivo, Abutilon theophrasti; conditions: application rate 320 g/ha; visual grading after ca. 3 weeks

Structure (SMILES) | pre-emergence activity against LOLRI ([1]; application rate 1280 g/ha) [%] | pre-emergence activity against MATIN [2] [%] | pre-emergence activity against SETVI [3] [%] | pre-emergence activity against STEME ([4]; application rate 320 g/ha) [%] | pre-emergence activity against POAAN [5] [%] | post-emergence activity against POAAN [6] [%] | pre-emergence activity against ALOMY [7] [%] | pre-emergence activity against SETVI [9] [%] | pre-emergence activity against VIOTR ([11]; application rate 320 g/ha) [%] | pre-emergence activity against ZEAMX ([12]; application rate 320 g/ha) [%] | pre-emergence activity against GLXMA [14] [%] | post-emergence activity against ECHCG [16] [%] | post-emergence activity against VERPE [17] [%] | post-emergence activity against ZEAMX ([18]; application rate 320 g/ha) [%] | post-emergence activity against TRZAS [19] [%] | post-emergence activity against ORYZA [20] [%] | post-emergence activity against BRSNW [21] [%] | pre-emergence activity against ORYZA [22] [%] | pre-emergence activity against ABUTH [23] [%] | pre-emergence activity against AMARE [25] [%] | further results
O=C1N(Cc2ccc(Cl)s2)CCCC12CCCN(Cc1ccc(Cl)s1)C2=O (racemic) [I-022] | 90 | 90 | 100 | 100 | 100 | 90 | 90 | 100 | 80 | 0 | 20 | 90 | 80 | 0 | 10 | 10 | 20 | 10 | – | – | pre-emergence activity against ECHCG ([8]; application rate 320 g/ha): 100%; pre-emergence activity against VERPE ([10]; application rate 80 g/ha): 100%; pre-emergence activity against TRZAS ([13]; application rate 320 g/ha): 10%; pre-emergence activity against BRSNW [15]: 0%
O=C1N(Cc2cccc(F)c2F)CCCC12CCN(Cc1c(F)cccc1F)C2=O (racemic) [I-032] | – | 90 | 100 | 90 | 100 | 90 | 90 | 100 | – | 0 | 0 | 80 | 90 | – | 0 | 0 | 0 | 0 | 90 | 90 | pre-emergence activity against ECHCG ([24]; application rate 1280 g/ha): 100%; pre-emergence activity against LOLRI ([1]; application rate 320 g/ha): 100%; pre-emergence activity against ALOMY [26]: 90%; pre-emergence activity against KCHSC ([27]; application rate 320 g/ha): 90%; pre-emergence activity against VERPE [28]: 90%; pre-emergence activity against DIGSA ([29]; application rate 1280 g/ha): 100%; post-emergence activity against ABUTH [30]: 90%; post-emergence activity against ECHCG [31]: 90%; post-emergence activity against SETVI [32]: 90%; pre-emergence activity against DIGSA [33]: 100%; pre-emergence activity against ECHCG ([8]; application rate 80 g/ha): 100%; pre-emergence activity against LOLRI [34]: 100%; pre-emergence activity against MATIN [35]: 80%; pre-emergence activity against POLCO [36]: 80%; pre-emergence activity against VERPE ([10]; application rate 320 g/ha): 80%; pre-emergence activity against VIOTR ([11]; application rate 80 g/ha): 90%; pre-emergence activity against TRZAS ([13]; application rate 80 g/ha): 0%; post-emergence activity against ZEAMX ([18]; application rate 80 g/ha): 20%
O=C1N(Cc2ccccc2)CCCC12CCN(Cc1cccc(F)c1F)C2=O (racemic) [I-039] | 100 | 90 | 100 | – | 100 | – | 100 | 100 | 90 | – | – | – | – | 20 | 0 | 0 | – | 20 | 90 | 90 | pre-emergence activity against ECHCG ([24]; application rate 320 g/ha): 100%; pre-emergence activity against STEME ([4]; application rate 1280 g/ha): 90%; pre-emergence activity against KCHSC ([27]; application rate 1280 g/ha): 90%; pre-emergence activity against VERPE [28]: 90%; pre-emergence activity against DIGSA ([29]; application rate 320 g/ha): 100%; post-emergence activity against ABUTH [30]: 90%; post-emergence activity against ECHCG [31]: 90%; pre-emergence activity against ABUTH [37]: 90%; pre-emergence activity against DIGSA [33]: 100%; pre-emergence activity against ECHCG ([8]; application rate 80 g/ha): 100%; pre-emergence activity against LOLRI [34]: 90%; pre-emergence activity against VERPE ([10]; application rate 320 g/ha): 80%; pre-emergence activity against ZEAMX ([12]; application rate 80 g/ha): 0%
